Results published in PubChem BioAssay (NCI).
Values joined by “and” are separate entries in the source; they are usually repeats but may differ in a detail not shown here. Identical values can stand only once.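 Following 48 hours of exposure in 96-well plates, responses at five concentrations were used to interpolate endpoints linearly. Here, GI50 denotes the concentration required for 50% inhibition of growth. TGI: total growth inhibition.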

Legend:
Experiment in all cases: inhibition of tumour cell growth, NCI panel, 48 h
[1] = test system: OVCAR-5 ovarian
[2] = test system: NCI-H226 lung
[3] = test system: M14 melanoma
[4] = test system: SNB-75 CNS
[5] = test system: EKVX NSCLC
[6] = test system: LOX IMVI melanoma
[7] = test system: UACC-257 melanoma
[8] = test system: HT29 colon
[9] = test system: IGROV1 ovarian
[10] = test system: SK-MEL-5 melanoma

| Structure (SMILES) | TGI [1] | TGI [2] | TGI [3] | TGI [4] | TGI [5] | TGI [6] | TGI [7] | TGI [8] | TGI [9] | GI50 [1] | GI50 [2] | GI50 [3] | GI50 [4] | GI50 [5] | GI50 [7] | GI50 [10] | TGI [10] | GI50 [9] | GI50 [8] | GI50 [6] |
| --- | --- | --- | --- | --- | --- | --- | --- | --- | --- | --- | --- | --- | --- | --- | --- | --- | --- | --- | --- | --- |
| N#CC(C(=N/NC(N)=S)/C(=N\NC(N)=S)C(C#N)c1ccccc1)c1ccccc1 (configuration not stated) | > 10 µM | > 10 µM | > 10 µM | > 10 µM | > 10 µM | > 10 µM | > 10 µM | > 10 µM | – | – | – | – | – | – | – | – | – | – | – | – |
| C=CCCC12CCCC(=O)C1Sc1ccc3ccccc3c12 (configuration not stated) | 93.5 µM | 36.2 µM | 31.1 µM | 82.9 µM | 64.2 µM | 26.5 µM | 55.7 µM | 67.2 µM | > 100 µM | – | – | – | – | – | – | – | – | – | – | – |
| CCN(CC)CCNc1ccc(CO)c2sc3ccccc3c(=O)c12 | 25.1 µM [middle of 4 runs] | 4.48 µM and 44.8 µM and 26.1 µM | 4.2 µM and 25.1 µM and 4.3 µM | 17.7 µM and 29.1 µM and 9.2 µM | 28.7 µM [middle of 4 runs] | – | – | – | – | 5.05 µM | 1.74 µM | 1.99 µM and 12.4 µM and 2.03 µM | 4.27 µM and 14.4 µM and 2.33 µM | 3.92 µM and 16.2 µM | 1.7 µM and 3.79 µM | – | – | – | – | – |
| COc1cc(/C=C\c2cc(/C=C\c3ccc(O)c(OC)c3)n(C(=O)Nc3ccc(C(F)(F)F)cc3)n2)ccc1O | 4.97 µM | 27.6 µM | 4.08 µM | 66 µM | 38.4 µM | – | 14 µM | 4.13 µM | 11.6 µM | 2.16 µM | 7.29 µM | 1.94 µM | 2.99 µM | 3.22 µM | 4.01 µM | 2.27 µM | 6.89 µM | 2.77 µM | 2.02 µM | – |
| CC(=O)OC1C(O)COC(Oc2c(C)c3c4c(c2O)[C@@H](C)CC[C@@H]4[C@@H](C)C[C@H]3C=C(C)C)C1O (some centres not stated) | 47.9 µM | 64.8 µM | 31.5 µM | – | – | 35.4 µM | – | – | > 100 µM | 23.2 µM | 24.5 µM | 14.6 µM | – | – | – | 15.3 µM | 32.4 µM | 28.9 µM | – | 18 µM |
| CN1C(=O)NC2(O)c3ccccc3C(=O)C12O (configuration not stated) | > 100 µM | – | > 100 µM | > 100 µM | > 100 µM | > 100 µM | > 100 µM | > 100 µM | > 100 µM | – | – | – | – | – | – | – | – | – | – | – |
| CC(=O)c1ccc(NCn2nc(-c3ccccc3O)oc2=S)cc1 | > 100 µM | 99.3 µM | > 100 µM | – | > 100 µM | 45.5 µM | > 100 µM | > 100 µM | > 100 µM | > 100 µM | 27.4 µM | > 100 µM | – | > 100 µM | > 100 µM | 55.6 µM | > 100 µM | > 100 µM | 47 µM | 22.7 µM |
| S=C(S)NCCCn1ccnc1 | > 100 µM | > 100 µM | > 100 µM | – | > 100 µM | > 100 µM | > 100 µM | > 100 µM | > 100 µM | – | – | – | – | – | – | – | > 100 µM | – | – | – |
| COc1ccc2c3c([nH]c2c1[N+](=O)[O-])C(C)N(C(=O)/C=C/c1ccccc1)CC3 (configuration not stated) | > 100 µM | 41.3 µM | > 100 µM | – | > 100 µM | 42.6 µM | > 100 µM | > 100 µM | > 100 µM | – | – | – | – | – | – | – | – | – | – | – |
| CCC(=O)[O-].CCC(=O)[O-].N.N.N.N.[Co+3].[O-][Cl+3]([O-])([O-])[O-] | > 100 µM | – | > 100 µM | > 100 µM | > 100 µM | > 100 µM | > 100 µM | > 100 µM | > 100 µM | > 100 µM | – | > 100 µM | > 100 µM | > 100 µM | > 100 µM | > 100 µM | > 100 µM | > 100 µM | > 100 µM | > 100 µM |
| C#Cc1cccc(N2C(=O)CC(=P(c3ccccc3)(c3ccccc3)c3ccccc3)C2=O)c1 | > 100 µM | > 100 µM | > 100 µM | > 100 µM | > 100 µM | – | > 100 µM | > 100 µM | – | – | – | – | – | – | – | – | 83.7 µM | – | – | – |
| COc1cccc2c1C(=O)c1c(O)c3c(c(O)c1C2=O)C[C@@](O)(C(=O)COC(=O)c1cccnc1)C[C@@H]3OC1CC(N)C(O)C(C)O1 (some centres not stated) | 4.53 µM | – | 1.06 µM | 0.534 µM | – | 0.372 µM | 0.557 µM | 1.53 µM | 3.79 µM | 0.335 µM | – | 0.17 µM | 0.084 µM | – | 0.172 µM | 0.118 µM | 0.252 µM | 0.121 µM | 0.199 µM | 0.0443 µM |
| O=C(/C=C/c1ccccc1)c1ccc(O)c(CN2CCN(c3cc4c(cc3F)c(=O)c(C(=O)O)cn4C3CC3)CC2)c1 | > 100 µM | > 100 µM | > 100 µM | 9.78 µM | > 100 µM | – | > 100 µM | > 100 µM | 36.6 µM | 3.91 µM | 3.54 µM | 1 µM | 0.378 µM | 3.66 µM | 1.91 µM | 1.89 µM | 7.48 µM | 1.36 µM | 1.58 µM | – |
| CC(=O)C1C(=O)C(=O)N(c2ccc(Cl)cc2C)C1=O (configuration not stated) | > 100 µM | – | > 100 µM | – | > 100 µM | – | > 100 µM | > 100 µM | > 100 µM | – | – | – | – | – | – | – | > 100 µM | – | – | – |
| O=C(Oc1ccccc1Cl)c1cccnc1Nc1ccnc(C(F)(F)F)c1 | > 100 µM | 8.07 µM | – | – | 84.3 µM | 14.2 µM | 63.5 µM | 71.5 µM | 30.4 µM | 39.6 µM | 2.61 µM | – | – | 32.6 µM | 21.4 µM | 14 µM | 27 µM | 10.7 µM | 25.3 µM | 3.96 µM |
| CC(=O)[CH-]C(=O)c1ccccc1.CC(=O)[CH-]C(=O)c1ccccc1.[O-]c1ccc(O)cc1.[O-]c1ccc(O)cc1.[Ti+4] | 91.4 µM | 34.6 µM | 30.8 µM | 28.1 µM | – | 27.3 µM | 70.7 µM | 59.7 µM | 63 µM | 35.1 µM | 15 µM | 15.6 µM | 14.3 µM | – | 21.5 µM | 16.2 µM | 30.3 µM | 23.7 µM | 21.5 µM | 14.3 µM |
